Target: recombinant USP30 (amino acids 57-517 of the human sequence) (Homo sapiens (Human), UniProt Q70CQ3)
Assay: In vitro USP30 biochemical assay (Ubiquitin-Rhodamine substrate)
Conditions: fluorescence
Protocol: In vitro biochemical assay to establish the potency of compounds for USP30 inhibition: a 384-well plate assay using a fluorophore tagged substrate of USP30 was used for in vitro screening of compounds. Each compound was tested at
10 different concentrations (0.5 to 10,000 nM) in duplicate wells. […] Data were analyzed using Graph Pad Prism software with a four-parameter (floating slope) fit to log concentration data to determine IC50s.

[1] = 1.5 nM recombinant USP30, 25 nM Ubiquitin-Rhodamine
[2] = […] recombinant USP30, 25 nM Ubiquitin-Rhodamine

Sequence of recombinant USP30 (amino acids 57-517 of the human sequence) (Q70CQ3 57-517): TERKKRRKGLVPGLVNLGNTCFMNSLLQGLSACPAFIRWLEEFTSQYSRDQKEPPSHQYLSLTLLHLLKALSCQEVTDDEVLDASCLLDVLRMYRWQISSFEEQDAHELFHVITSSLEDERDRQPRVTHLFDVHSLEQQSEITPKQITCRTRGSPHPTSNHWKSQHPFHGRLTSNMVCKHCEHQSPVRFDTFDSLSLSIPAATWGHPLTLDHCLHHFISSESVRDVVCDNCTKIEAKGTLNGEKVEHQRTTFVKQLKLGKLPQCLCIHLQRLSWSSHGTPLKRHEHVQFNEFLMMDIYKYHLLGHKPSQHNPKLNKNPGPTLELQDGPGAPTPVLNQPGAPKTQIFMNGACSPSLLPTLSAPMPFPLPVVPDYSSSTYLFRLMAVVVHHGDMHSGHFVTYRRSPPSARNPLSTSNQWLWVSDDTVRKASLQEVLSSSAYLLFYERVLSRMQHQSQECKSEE

IC50 [1]	IC50 [2]	Structure (SMILES)
0.05 to 1 µM	–	O=C(NC(CC1CCNCC1)C(=O)Nc1ccc(S(=O)(=O)NC2COC2)cc1)c1ccc(F)cc1 (stereo not drawn) [Compound I-120]
1 to 10 µM	–	N#CN1CC[C@H](NC(=O)[C@H](Cc2ccccc2)NC(=O)c2ccc(F)cc2)C1 [Compound I-123]
–	> 10 µM	N#CN1CCC(NC(=O)[C@H](Cc2ccccc2)NC(=O)c2ccc(F)cc2)CC1 [Compound I-124]
–	< 0.05 µM	CC(C)(NS(=O)(=O)c1ccc(NC(=O)[C@H](CC2CCOCC2)NC(=O)c2ccc(F)cc2)cc1)C(F)(F)F [Compound I-126]
0.05 to 1 µM	–	CN1CCC(C[C@H](NC(=O)c2ccc(F)cc2)C(=O)Nc2ccc(S(=O)(=O)NC(C)(C)CF)cc2)CC1 [Compound I-127]
0.05 to 1 µM	–	COc1cc(NC(=O)[C@H](CC2CCOCC2)NC(=O)c2ccc(F)cc2)ccc1S(=O)(=O)NC1CCOCC1 [Compound I-134]
0.05 to 1 µM	–	COc1cc(NC(=O)[C@H](CC2CCNCC2)NC(=O)c2ccc(F)cc2)ccc1S(=O)(=O)NC1CCOCC1 [Compound I-135]
1 to 10 µM	–	COc1cc(NC(=O)[C@H](Cc2ccccc2)NC(=O)c2ccc(F)cc2)c(Cl)cc1S(=O)(=O)NC1(CO)CC1 [Compound I-139]
0.05 to 1 µM	–	CN1CCC(C[C@H](NC(=O)c2ccc(F)cc2)C(=O)Nc2ccc(S(=O)(=O)NC3CCOCC3)nc2)CC1 [Compound I-140]
1 to 10 µM	–	COc1cc(NC(=O)[C@H](Cc2ccccc2)NC(=O)c2ccc(F)cc2)c(Cl)cc1S(=O)(=O)NC(C)(CO)CO [Compound I-142]
0.05 to 1 µM	–	O=C(N[C@@H](CC1CCNCC1)C(=O)Nc1ccc(S(=O)(=O)NC2CCOCC2)nc1)c1ccc(F)cc1 [Compound I-144]
–	> 10 µM	O=C(N[C@@H](Cc1ccccc1)C(=O)N[C@@H]1CCNC1)c1ccc(F)cc1 [Compound I-146]
–	> 10 µM	CN1CC[C@@H](NC(=O)[C@H](Cc2ccccc2)NC(=O)c2ccc(F)cc2)C1 [Compound I-152]
–	> 10 µM	N#CCN1CC[C@@H](NC(=O)[C@H](Cc2ccccc2)NC(=O)c2ccc(F)cc2)C1 [Compound I-154]
–	> 10 µM	CC(C)(C)NS(=O)(=O)N1CC[C@@H](NC(=O)[C@H](Cc2ccccc2)NC(=O)c2ccc(F)cc2)C1 [Compound I-162]
–	> 10 µM	O=C(N[C@@H](Cc1ccccc1)C(=O)N[C@@H]1CCN(S(=O)(=O)NC2COC2)C1)c1ccc(F)cc1 [Compound I-169]
–	> 10 µM	O=C(N[C@@H](Cc1ccccc1)C(=O)N[C@@H]1CCN(S(=O)(=O)NC2CCOC2)C1)c1ccc(F)cc1 (stereo partly drawn) [Compound I-170]
–	> 10 µM	CC(C)(C)NS(=O)(=O)c1ccc(NC(=O)[C@H](Cc2ccccc2)NC(=O)c2c[nH]cn2)cc1 [Compound I-176]
1 to 10 µM	–	CC(C)(C)NS(=O)(=O)c1ccc(NC(=O)[C@H](Cc2ccccc2)NC(=O)c2cc[nH]n2)cc1 [Compound I-178]
1 to 10 µM	–	CC(C)(C)NS(=O)(=O)c1ccc(NC(=O)[C@H](Cc2ccccc2)NC(=O)N2CC3(COC3)C2)cc1 [Compound I-179]
1 to 10 µM	–	CN1CCN(C(=O)N[C@@H](Cc2ccccc2)C(=O)Nc2ccc(S(=O)(=O)NC(C)(C)C)cc2)CC1 [Compound I-180]
–	> 10 µM	CC(C)(C)NS(=O)(=O)c1ccc(NC(=O)[C@H](Cc2ccccc2)NC(=O)c2cc[nH]c2)cc1 [Compound I-181]
0.05 to 1 µM	–	CN1CCC(C[C@H](NC(=O)c2ccc(F)nc2)C(=O)Nc2ccc(S(=O)(=O)NC(C)(C)C)cc2)CC1 [Compound I-183]

The next lines start with the molecule.

Structure (SMILES)	IC50 [1]	IC50 [2]
CCN1CCC(C[C@H](NC(=O)c2ccc(F)cc2)C(=O)Nc2ccc(S(=O)(=O)NC(C)(C)CO)cc2)CC1 [Compound I-45]	0.05 to 1 µM	–
CC(C)(CO)NS(=O)(=O)c1ccc(NC(=O)[C@H](CC2CC2)NC(=O)c2ccc(F)cc2)cc1 [Compound I-46]	0.05 to 1 µM	–
CC(C)(CN1CCOCC1)NS(=O)(=O)c1ccc(NC(=O)[C@H](CC2CC2)NC(=O)c2ccc(F)cc2)cc1 [Compound I-47]	0.05 to 1 µM	–
O=C(N[C@@H](CC1CC1)C(=O)Nc1ccc(S(=O)(=O)NC2COC2)cc1)c1ccc(F)cc1 [Compound I-48]	1 to 10 µM	–
CC(C)(C)NS(=O)(=O)c1ccc(NC(=O)[C@@H]2C[C@@H](c3ccccc3)CN2C(=O)c2ccc(F)cc2)cc1 [Compound I-49, (2S,4S)—N-(4-(N-(tert-butyl)sulfamoyl)phenyl)-1-(4-fluorobenzoyl)-4-phenylpyrrolidine-2-carboxamide]	0.05 to 1 µM	–
CC(C)(C)NS(=O)(=O)c1ccc(NC(=O)[C@@H]2CCCN2C(=O)c2ccc(F)cc2)cc1 [Compound I-50, (S)—N-(4-(N-tert-butylsulfamoyl)phenyl)-1-(4-fluorobenzoyl)pyrrolidine-2-carboxamide]	1 to 10 µM	–
CC(C)(CO)NS(=O)(=O)c1ccc(NC(=O)[C@@H](NC(=O)c2ccc(F)cc2)C2CC2)cc1 [Compound I-52]	1 to 10 µM	–
CC(C)(CN1CCOCC1)NS(=O)(=O)c1ccc(NC(=O)[C@@H](NC(=O)c2ccc(F)cc2)C2CC2)cc1 [Compound I-53]	1 to 10 µM	–
O=C(N[C@H](C(=O)Nc1ccc(S(=O)(=O)NC2COC2)cc1)C1CC1)c1ccc(F)cc1 [Compound I-54, (S)—N-(1-cyclopropyl-2-((4-(N-(oxetan-3-yl)sulfamoyl)phenyl)amino)-2-oxoethyl)-4-fluorobenzamide]	1 to 10 µM	–
CC(C)(C)NC(=O)N1CCC(NC(=O)[C@H](Cc2ccccc2)NC(=O)c2ccc(F)cc2)CC1 [Compound I-57, (S)—N-(tert-butyl)-4-(2-(4-fluorobenzamido)-3-phenylpropanamido)piperidine-1-carboxamide]	1 to 10 µM	–
CC(C)(C)NS(=O)(=O)N1CCC(NC(=O)[C@H](Cc2ccccc2)NC(=O)c2ccc(F)cc2)CC1 [Compound I-58, (S)—N-(1-((1-(N-(tert-butyl)sulfamoyl)piperidin-4-yl)amino)-1-oxo-3-phenylpropan-2-yl)-4-fluorobenzamide]	1 to 10 µM	–
CC(C)(C)NS(=O)(=O)c1ccc(NC(=O)[C@H](Cc2ccccc2)NC(=O)c2ccc(F)cc2)cc1O [Compound I-63]	–	< 0.05 µM
O=C(N[C@@H](Cc1ccccc1)C(=O)Nc1ccc(S(=O)(=O)NC23CC(C2)C3)c(O)c1)c1ccc(F)cc1 [Compound I-64]	0.05 to 1 µM	–
COc1cc(NC(=O)[C@H](CC(C)C)NC(=O)c2ccc(F)cc2)cnc1S(=O)(=O)NC(C)(C)CO [Compound I-73]	1 to 10 µM	–
CC(C)(CO)NS(=O)(=O)c1ccc(NC(=O)[C@H](CC2CCOCC2)NC(=O)c2ccc(F)cc2)cn1 [Compound I-74]	0.05 to 1 µM	–
COc1cc(NC(=O)[C@H](CC2CCOCC2)NC(=O)c2ccc(F)cc2)cnc1S(=O)(=O)NC(C)(C)C [Compound I-75]	0.05 to 1 µM	–
COc1cc(NC(=O)[C@H](CC2CCOCC2)NC(=O)c2ccc(F)cc2)cnc1S(=O)(=O)NC(C)(C)CO [Compound I-76]	0.05 to 1 µM	–
CC(C)(C)NS(=O)(=O)c1ccc(NC(=O)[C@@H](NC(=O)c2ccc(F)cc2)C(C)(C)C)cc1 [Compound I-77]	1 to 10 µM	–
COc1cc(NC(=O)[C@H](CC2CCN(C)CC2)NC(=O)c2ccc(F)cc2)cnc1S(=O)(=O)NC(C)(C)C [Compound I-80]	0.05 to 1 µM	–

Structure (SMILES)	IC50 [1]	IC50 [2]
COc1cc(NC(=O)[C@H](CC2CCOCC2)NC(=O)c2ccc(F)cc2)cnc1S(=O)(=O)NC1CCC1 [Compound I-81]	0.05 to 1 µM	–
COc1cc(NC(=O)[C@H](CC2CCOCC2)NC(=O)c2ccc(F)cc2)cnc1S(=O)(=O)NC1CCN(C)CC1 [Compound I-83]	1 to 10 µM	–
COc1cc(NC(=O)[C@H](CC2CCOCC2)NC(=O)c2ccc(F)cc2)ccc1S(=O)(=O)NC1CCN(C)CC1 [Compound I-88]	0.05 to 1 µM	–
CC(C)(C)NS(=O)(=O)c1ccc(NC(=O)C(Cc2ccccc2)c2nnc(-c3ccccc3)[nH]2)cc1 (stereo not drawn) [Compound I-89]	–	> 10 µM
CC(C)(C)NS(=O)(=O)c1ccc(NC(=O)C(Cc2ccccc2)c2nnc(-c3ccc(F)cc3)[nH]2)cc1 (stereo not drawn) [Compound I-90]	–	> 10 µM
O=C(Nc1ccc(S(=O)(=O)N[C@@H]2CCOC2)cc1)[C@@H]1C[C@@H](c2ccccc2)CN1C(=O)c1ccc(F)cc1 [Compound I-92]	–	1 to 10 µM
COc1cc(NC(=O)[C@H](CC2CCN(C)CC2)NC(=O)c2ccc(F)cc2)ccc1S(=O)(=O)N[C@@H]1CCOC1 [Compound I-95]	0.05 to 1 µM	–
COc1cc(NC(=O)[C@H](CC2CCN(C)CC2)NC(=O)c2ccc(F)cc2)ccc1S(=O)(=O)NC1COC1 [Compound I-96]	0.05 to 1 µM	–
CN1CCC(NS(=O)(=O)c2ccc(NC(=O)[C@H](CC3CCOCC3)NC(=O)c3ccc(F)cc3)cn2)CC1 [Compound I-98]	1 to 10 µM	–
COc1cc(NC(=O)[C@H](CC2CCN(C)CC2)NC(=O)c2ccc(F)cc2)cnc1S(=O)(=O)NC(C)(C)CO [Compound I-100]	1 to 10 µM	–
CN1CCC(C[C@H](NC(=O)c2ccc(F)cc2)C(=O)Nc2ccc(S(=O)(=O)NC3COC3)nc2)CC1 [Compound I-104]	1 to 10 µM	–
O=C(N[C@@H](CC1CCNCC1)C(=O)Nc1ccc(S(=O)(=O)N[C@@H]2CCOC2)nc1)c1ccc(F)cc1 [Compound I-108]	0.05 to 1 µM	–
O=C(N[C@@H](CC1CCNCC1)C(=O)Nc1ccc(S(=O)(=O)NC2COC2)nc1)c1ccc(F)cc1 [Compound I-111]	1 to 10 µM	–
O=C(N[C@@H](Cc1ccccc1)C(=O)NC1CCN(C(=O)OCc2ccccc2)CC1)c1ccc(F)cc1 [Compound I-113]	–	> 10 µM
CC(=O)N1CCC(NC(=O)[C@H](Cc2ccccc2)NC(=O)c2ccc(F)cc2)CC1 [Compound I-114]	–	> 10 µM
CC(C)(C)NS(=O)(=O)c1ccc(NC(=O)[C@H](CC2CCN(c3ccccc3)CC2)NC(=O)c2ccc(F)cc2)cc1 [Compound I-116]	–	< 0.05 µM
CNS(=O)(=O)N1CCC(NC(=O)[C@H](Cc2ccccc2)NC(=O)c2ccc(F)cc2)CC1 [Compound I-118]	–	> 10 µM
CNC(=O)N1CCC(NC(=O)[C@H](Cc2ccccc2)NC(=O)c2ccc(F)cc2)CC1 [Compound I-119]	–	> 10 µM

— patent US20250162989A1, “USP30 INHIBITORS AND USES THEREOF” (Vincere Biosciences, Inc., priority 2021, published 2025)
